Results taken from ChEMBL document CHEMBL1201862, “PubChem BioAssay data set” (2004).
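96-well plates; 48 h exposure; 5 concentrations. Endpoints by linear interpolation between flanking doses. Not reached: highest tested concentration assigned. The concentration for 50% growth inhibition is given as GI50.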 Active and inactive are the calls of the source. Cut-off read from the data, not from the text of the source: active = GI50 up to about 1.1 µM and inactive = higher.

How the values were obtained:
Assay in all cases: DTP human tumour cell line panel, 48 h
[1] = tested on: M14
[2] = tested on: SK-MEL-5
[3] = tested on: CAKI-1
[4] = tested on: SN12C
[5] = tested on: ACHN
[6] = tested on: UO-31
[7] = tested on: SF-268
[8] = tested on: SK-MEL-28
[9] = tested on: COLO 205
[10] = tested on: Malme-3M
[11] = tested on: HCT-15
[12] = tested on: SW-620
[13] = tested on: HT-29
[14] = tested on: SNB-19
[15] = tested on: SK-MEL-2
[16] = tested on: MCF7
[17] = tested on: SR
[18] = tested on: HL-60
[19] = tested on: A498

Row | Structure (SMILES) | GI50 [1] | GI50 [2] | GI50 [3] | GI50 [4] | GI50 [5] | GI50 [6] | GI50 [7] | GI50 [8] | GI50 [9] | GI50 [10] | GI50 [11] | GI50 [12] | GI50 [13] | GI50 [14] | GI50 [15] | GI50 [16] | GI50 [17] | GI50 [18] | GI50 [19]
1 | Cn1cc(NC(=O)c2cc(NC(=O)CCCCCCCCCCC(=O)Nc3cc(C(=O)Nc4cc(C(=O)NCCC(=N)N)n(C)c4)n(C)c3)cn2C)cc1C(=O)NCCC(=N)N | 28.2 µM (inactive) | 15.8 µM (inactive) | 46.8 µM (inactive) | 37.1 µM (inactive) | 29.9 µM (inactive) | > 100 µM (inactive) | 30.6 µM (inactive) | > 10 µM (inactive) | 9.73 µM (inactive) | 2.18 µM (inactive) | 36.6 µM | 17.9 µM (inactive) | 29.1 µM (inactive) | 34.4 µM (inactive) | 35.8 µM (inactive) | – | – | – | –
2 | Cc1n[nH]/c(=N\S(=O)(=O)c2ccc(/N=N/c3c(O)c(C(=O)O)cc4ccccc34)cc2)s1 | > 100 µM (inactive) | > 100 µM (inactive) | > 100 µM (inactive) | > 100 µM (inactive) | > 100 µM (inactive) | > 100 µM (inactive) | > 100 µM (inactive) | > 100 µM (inactive) | > 100 µM (inactive) | > 100 µM (inactive) | > 100 µM | > 100 µM (inactive) | > 100 µM (inactive) | > 100 µM (inactive) | > 100 µM (inactive) | > 100 µM (inactive) | > 100 µM (inactive) | > 100 µM (inactive) | –
3 | N#Cc1c(-c2ccc(Cl)cc2)[nH]c(=O)n(C2OC(CO)C(O)C(O)C2O)c1=O (stereo not drawn) | > 100 µM (inactive) | > 100 µM (inactive) | > 100 µM (inactive) | > 100 µM (inactive) | > 100 µM (inactive) | > 100 µM (inactive) | > 100 µM (inactive) | > 100 µM (inactive) | > 100 µM (inactive) | – | > 100 µM | > 100 µM (inactive) | > 100 µM (inactive) | > 100 µM (inactive) | > 100 µM (inactive) | > 100 µM (inactive) | – | > 100 µM (inactive) | 21.1 µM (inactive)
4 | CC1(C)OC(=O)C(C)(C)C(=O)O1 | > 100 µM (inactive) | > 100 µM (inactive) | > 100 µM (inactive) | > 100 µM (inactive) | > 100 µM (inactive) | > 100 µM (inactive) | > 100 µM (inactive) | > 100 µM (inactive) | > 100 µM (inactive) | > 100 µM (inactive) | > 100 µM | > 100 µM (inactive) | > 100 µM (inactive) | > 100 µM (inactive) | > 100 µM (inactive) | > 100 µM (inactive) | > 100 µM (inactive) | > 10 µM (inactive) | –
5 | C[C@H]1CN[C@@H]2[C@@H](C)[C@H]3[C@@H](C[C@H]4[C@@H]5CC[C@H]6C[C@@H](N)CC[C@]6(C)[C@H]5CC[C@]34C)O[C@@]2(O)C1 | 2.04 µM (inactive) | 3.04 µM (inactive) | 2.37 µM (inactive) | 1.42 µM (inactive) | 2.65 µM (inactive) | 2.25 µM (inactive) | 1.5 µM (inactive) | 1.77 µM (inactive) | 1.51 µM (inactive) | 1.64 µM (inactive) | 1.38 µM | 2.25 µM (inactive) | 1.19 µM (inactive) | 2.07 µM (inactive) | 3.06 µM (inactive) | 4.18 µM (inactive) | – | 1.64 µM (inactive) | 0.142 µM (active)
6 | O[C@@]1(c2cccs2)c2cccc(Cl)c2[C@](O)(c2cccs2)c2cccc(Cl)c21 | 15.4 µM (inactive) | 17.3 µM (inactive) | 24.4 µM (inactive) | 17.9 µM (inactive) | 17 µM (inactive) | 46.7 µM (inactive) | 19.8 µM (inactive) | 17.3 µM (inactive) | 19.5 µM (inactive) | 17.8 µM (inactive) | 21.2 µM | 17.3 µM (inactive) | 17.2 µM (inactive) | 26.7 µM (inactive) | 18.2 µM (inactive) | 18.5 µM (inactive) | – | 16.6 µM (inactive) | 12.6 µM (inactive)
7 | CCOC(=O)CNC(=O)C(CSC(=O)N(O)c1ccc(Cl)cc1)NC(=O)CCC(N)C(=O)OCC (stereo not drawn) | 34.8 µM (inactive) | > 50 µM (inactive) | > 50 µM (inactive) | > 50 µM (inactive) | > 50 µM (inactive) | > 50 µM (inactive) | 1.88 µM (inactive) | 24.8 µM (inactive) | > 50 µM (inactive) | – | > 50 µM | 14.8 µM (inactive) | > 50 µM (inactive) | 9.53 µM (inactive) | > 50 µM (inactive) | > 50 µM (inactive) | 43.5 µM (inactive) | – | –
8 | Cc1nnc2sc(-c3ccc(N)cc3)nn12 | > 100 µM (inactive) | > 100 µM (inactive) | > 100 µM (inactive) | > 100 µM (inactive) | > 100 µM (inactive) | > 100 µM (inactive) | > 100 µM (inactive) | > 100 µM (inactive) | > 100 µM (inactive) | > 100 µM (inactive) | > 100 µM | > 100 µM (inactive) | > 100 µM (inactive) | > 100 µM (inactive) | > 100 µM (inactive) | > 100 µM (inactive) | > 100 µM (inactive) | > 100 µM (inactive) | –
